Data set [1] in a line: Competition experiment between Formula I Form II and Formula I Form IV in IPA/Water at 50° C. The format is physicochemical.
Data set [2] can be described thus: Competition experiment between Formula I Form I and Formula I Form II in isopropyl acetate. The format is physicochemical. Conditions: Experiment 26; Form I 11 mg + Mixture II 55.4 mg in IPAc 889 mg; 75 mg/g; suspension. On the procedure:
A competition experiment between Formula I Form I and Formula I Form II was conducted by mixing Formula I Form I with isopropyl acetate, followed by adding Mixture II, a mixture of Formula I Form II and Formula I Form IV.

The format of data set [3] is physicochemical. Conditions: for XRPD: room temperature, two weeks.
Setting [4] is: Experiment 023, wt % water 9.3, 1 day in suspension, Temp. 50.
[5] abbreviates: Experiment 030, wt % water 4.9, 1, 3 days in suspension, Temp. 50.
The mark [6] stands for this setting: Experiment 033, wt % water 39.5, 3 days in suspension, Temp. 50.
Setting [7] is: Experiment 034, wt % water 49.9, 1, 3 days in suspension, Temp. 50.

Each structure is given as a SMILES string. Where two headings read alike, the source gives them in different places.

With `CCC(CC)COC(=O)[C@H](C)N[P@](=O)(OC[C@H]1O[C@@](C#N)(c2ccc3c(N)ncnn23)[C@H](O)[C@@H]1O)Oc1ccccc1` [Formula I Mixture II, (S)-2-ethylbutyl 2-(((S)-(((2R,3S,4R,5R)-5-(4-aminopyrrolo[2,1-f][1,2,4]triazin-7-yl)-5-cyano-3,4-dihydroxytetrahydrofuran-2-yl)methoxy)(phenoxy)phosphoryl)amino)propanoate], the DSC result is “Form II” in data set [1] (setting [4]); “Form II” in data set [1] (setting [5]); “Form II” in data set [1] (setting [6]); “Form II” in data set [1] (setting [7]); “Form II” in data set [1] (Experiment 037, wt % water 0.93, 2 days in suspension, Temp. 50, 22). Also, the XRPD result in data set [1] (setting [4]), in data set [1] (setting [5]), in data set [1] (setting [6]) and in data set [1] (setting [7]) was “Form II” each time. In data set [1] (IPA/Water (3/6 V/V) at 50° C. for several days, all experiments), the conversion of form entry is “conversion to Formula I Form II”. Further, the “Comment (form conversion)” value in data set [2] is “Form II in 1 day”.

For the compound `CCC(CC)COC(=O)[C@H](C)N[P@](=O)(OC[C@H]1O[C@@](C#N)(c2ccc3c(N)ncnn23)[C@H](O)[C@@H]1O)Oc1ccccc1` [Formula I Form I, (S)-2-ethylbutyl 2-(((S)-(((2R,3S,4R,5R)-5-(4-aminopyrrolo[2,1-f][1,2,4]triazin-7-yl)-5-cyano-3,4-dihydroxytetrahydrofuran-2-yl)methoxy)(phenoxy)phosphoryl)amino)propanoate], in data set [2], the “Comment (form conversion)” value is given as “Form II in 1 day”.

Turning to `CCC(CC)COC(=O)[C@H](C)N[P@](=O)(OC[C@H]1O[C@@](C#N)(c2ccc3c(N)ncnn23)[C@H](O)[C@@H]1O)Oc1ccccc1` [Formula I, (S)-2-ethylbutyl 2-(((S)-(((2R,3S,4R,5R)-5-(4-aminopyrrolo[2,1-f][1,2,4]triazin-7-yl)-5-cyano-3,4-dihydroxytetrahydrofuran-2-yl)methoxy)(phenoxy)phosphoryl)amino)propanoate], the XRPD entry in data set [3] (Experiment 12, 1-propanol) is recorded as “Partially converted to Form II”; in data set [3] (Experiment 14, THF), “Partially converted to Form II”; in data set [3] (Experiment 16, 2-propanol), “Partially converted to Form II”; in data set [3] (Experiment 18, ACN) it was “Form II”; in data set [3] (Experiment 20, DCM) it was “Partially converted to Form II”; in data set [3] (Experiment 22, Ethanol), “Form II”. Moreover, the XRPD entry is listed as “Partially converted to Form II” in data set [3] (Experiment 24, MTBE); “Partially converted to Form II” in data set [3] (Experiment 26, 2MeTHF); “Form II” in data set [3] (Experiment 28, EtOAc/water); “Form II” in data set [3] (Experiment 30, MEK); “Form II” in data set [3] (Experiment 32, Ethanol/water aw 0.4).

Take `CCC(CC)COC(=O)[C@H](C)N[P@](=O)(OC[C@H]1O[C@@](C#N)(c2ccc3c(N)ncnn23)[C@H](O)[C@@H]1O)Oc1ccccc1` [Formula I Form II, (S)-2-ethylbutyl 2-(((S)-(((2R,3S,4R,5R)-5-(4-aminopyrrolo[2,1-f][1,2,4]triazin-7-yl)-5-cyano-3,4-dihydroxytetrahydrofuran-2-yl)methoxy)(phenoxy)phosphoryl)amino)propanoate]: the more stable form entry in data set [3] (several competition experiments) is “more stable form”.

Source of the values: patent US12030906B2, “Crystalline forms of (s)-2-ethylbutyl 2-(((s)-(((2r,3s,4r,5r)-5-(4-aminopyrrolo[2,1-f] [1,2,4]triazin-7-yl)-5-cyano-3,4-dihydroxytetrahydrofuran-2-yl)methoxy) (phenoxy) phosphoryl)amino)propanoate” (priority 2017, dated 2024).
